Test results as given in article doi:10.1101/2021.09.30.462449v1 (biorxiv, 2021).

Columns and labels:
PL^pro = PL^pro (Severe acute respiratory syndrome coronavirus 2, UniProt P0DTD1); test: FRET peptide cleavage assay; format: biochemical
CAMK1 (CaMK1) [1] = molecular target: T1, CAMK1 (CaMK1) (Homo sapiens, UniProt Q14012); test: biochemical; conditions: read-out: % inhibition mean (Adapta)
NUAK1 (ARK5) = NUAK1 (ARK5) (Homo sapiens, UniProt O60285); test: biochemical; conditions: read-out: % inhibition mean (Adapta)
PIP5K1B = PIP5K1B (Homo sapiens, UniProt O14986); test: biochemical; conditions: read-out: % inhibition mean (Adapta)
PIP5K1B, sequence (O14986 whole entry): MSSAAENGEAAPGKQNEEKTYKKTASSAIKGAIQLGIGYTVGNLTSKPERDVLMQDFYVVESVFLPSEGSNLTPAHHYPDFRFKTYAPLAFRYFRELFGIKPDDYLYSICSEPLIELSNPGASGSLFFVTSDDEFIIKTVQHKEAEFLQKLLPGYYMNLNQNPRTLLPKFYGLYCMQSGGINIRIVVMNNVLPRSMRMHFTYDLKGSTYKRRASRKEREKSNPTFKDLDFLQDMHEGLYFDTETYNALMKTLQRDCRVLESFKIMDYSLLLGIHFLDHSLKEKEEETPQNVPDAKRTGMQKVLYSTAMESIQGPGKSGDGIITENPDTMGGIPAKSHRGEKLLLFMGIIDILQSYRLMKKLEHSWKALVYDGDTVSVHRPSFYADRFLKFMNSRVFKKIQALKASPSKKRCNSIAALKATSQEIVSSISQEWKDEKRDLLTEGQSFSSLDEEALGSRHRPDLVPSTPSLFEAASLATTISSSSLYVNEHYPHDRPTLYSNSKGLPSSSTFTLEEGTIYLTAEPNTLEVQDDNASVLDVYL

LRRK2 I2020T = LRRK2 I2020T (Homo sapiens, UniProt Q5S007, I2020T); test: biochemical; conditions: read-out: % inhibition mean (Adapta)
PIP5K1C = PIP5K1C (Homo sapiens, UniProt O60331); test: biochemical; conditions: read-out: % inhibition mean (Adapta)
[2] = molecular target: PIK3CB/PIK3R2 (p110 beta/p85 beta) (Homo sapiens, UniProt P42338); test: biochemical; conditions: read-out: % inhibition mean (Adapta)
[3] = molecular target: PIK3CA/PIK3R1 (p110 alpha/p85 alpha) (Homo sapiens, UniProt P42336); test: biochemical; conditions: read-out: % inhibition mean (Adapta)
PIK3CA/PIK3R1 (p110 alpha/p85 alpha), sequence (P42336 whole entry): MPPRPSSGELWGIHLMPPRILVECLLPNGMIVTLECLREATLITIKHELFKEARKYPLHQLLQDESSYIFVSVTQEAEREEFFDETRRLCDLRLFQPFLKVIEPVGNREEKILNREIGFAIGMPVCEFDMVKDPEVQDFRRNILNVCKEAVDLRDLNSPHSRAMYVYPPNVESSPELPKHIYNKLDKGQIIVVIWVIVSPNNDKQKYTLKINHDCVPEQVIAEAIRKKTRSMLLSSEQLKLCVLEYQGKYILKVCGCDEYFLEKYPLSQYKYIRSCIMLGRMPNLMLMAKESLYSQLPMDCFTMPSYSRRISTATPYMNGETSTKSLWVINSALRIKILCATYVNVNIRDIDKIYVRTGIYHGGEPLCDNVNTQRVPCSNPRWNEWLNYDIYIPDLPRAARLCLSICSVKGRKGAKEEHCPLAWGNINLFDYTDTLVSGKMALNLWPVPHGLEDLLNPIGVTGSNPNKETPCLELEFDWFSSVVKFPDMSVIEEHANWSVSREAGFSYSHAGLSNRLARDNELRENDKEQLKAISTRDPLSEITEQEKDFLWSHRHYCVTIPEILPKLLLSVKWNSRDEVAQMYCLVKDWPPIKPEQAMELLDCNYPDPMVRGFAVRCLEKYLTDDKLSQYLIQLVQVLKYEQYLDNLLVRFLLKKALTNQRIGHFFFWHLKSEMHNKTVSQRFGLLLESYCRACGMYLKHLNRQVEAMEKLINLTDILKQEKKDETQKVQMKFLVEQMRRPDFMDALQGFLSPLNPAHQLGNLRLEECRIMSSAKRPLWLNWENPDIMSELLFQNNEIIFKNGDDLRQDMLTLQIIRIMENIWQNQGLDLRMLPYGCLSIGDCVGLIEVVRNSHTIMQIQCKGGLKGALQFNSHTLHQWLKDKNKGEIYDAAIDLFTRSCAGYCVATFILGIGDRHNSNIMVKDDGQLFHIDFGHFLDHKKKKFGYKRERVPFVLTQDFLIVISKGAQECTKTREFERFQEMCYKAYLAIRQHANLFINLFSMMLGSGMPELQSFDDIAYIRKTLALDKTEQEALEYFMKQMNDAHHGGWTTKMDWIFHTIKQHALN
PIK3CA/PIK3R1 (p110 alpha/p85 alpha), sequence (P27986 whole entry partner): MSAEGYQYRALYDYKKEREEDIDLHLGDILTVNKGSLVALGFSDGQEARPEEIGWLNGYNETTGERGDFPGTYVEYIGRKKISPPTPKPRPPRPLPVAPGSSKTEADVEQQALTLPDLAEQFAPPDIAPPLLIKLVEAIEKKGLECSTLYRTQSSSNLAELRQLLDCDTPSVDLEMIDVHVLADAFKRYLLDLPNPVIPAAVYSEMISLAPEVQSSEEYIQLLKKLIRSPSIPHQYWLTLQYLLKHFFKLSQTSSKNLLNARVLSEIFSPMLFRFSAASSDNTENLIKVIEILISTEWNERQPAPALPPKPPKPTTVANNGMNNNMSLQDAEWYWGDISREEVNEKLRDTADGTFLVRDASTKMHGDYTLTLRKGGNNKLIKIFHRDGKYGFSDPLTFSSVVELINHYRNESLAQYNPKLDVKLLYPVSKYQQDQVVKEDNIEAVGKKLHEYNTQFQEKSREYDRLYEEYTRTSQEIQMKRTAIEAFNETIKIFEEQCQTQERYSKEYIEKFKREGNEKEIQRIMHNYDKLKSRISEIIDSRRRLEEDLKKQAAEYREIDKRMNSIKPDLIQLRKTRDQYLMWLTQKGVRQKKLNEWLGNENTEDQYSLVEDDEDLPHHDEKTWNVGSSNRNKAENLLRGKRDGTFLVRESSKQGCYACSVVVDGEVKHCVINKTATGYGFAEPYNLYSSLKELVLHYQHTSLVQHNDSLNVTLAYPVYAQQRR

CDK9/cyclin T1 = CDK9/cyclin T1 (Homo sapiens, UniProt P50750); test: biochemical; conditions: read-out: % inhibition mean (Adapta)
PIK3CG (p110 gamma) = PIK3CG (p110 gamma) (Homo sapiens, UniProt P48736); test: biochemical; conditions: read-out: % inhibition mean (Adapta)
SPHK2 = SPHK2 (Homo sapiens, UniProt Q9NRA0); test: biochemical; conditions: read-out: % inhibition mean (Adapta)
PI4KB (PI4K beta) = PI4KB (PI4K beta) (Homo sapiens, UniProt Q9UBF8); test: biochemical; conditions: read-out: % inhibition mean (Adapta)
PI4KB (PI4K beta), sequence (Q9UBF8 whole entry): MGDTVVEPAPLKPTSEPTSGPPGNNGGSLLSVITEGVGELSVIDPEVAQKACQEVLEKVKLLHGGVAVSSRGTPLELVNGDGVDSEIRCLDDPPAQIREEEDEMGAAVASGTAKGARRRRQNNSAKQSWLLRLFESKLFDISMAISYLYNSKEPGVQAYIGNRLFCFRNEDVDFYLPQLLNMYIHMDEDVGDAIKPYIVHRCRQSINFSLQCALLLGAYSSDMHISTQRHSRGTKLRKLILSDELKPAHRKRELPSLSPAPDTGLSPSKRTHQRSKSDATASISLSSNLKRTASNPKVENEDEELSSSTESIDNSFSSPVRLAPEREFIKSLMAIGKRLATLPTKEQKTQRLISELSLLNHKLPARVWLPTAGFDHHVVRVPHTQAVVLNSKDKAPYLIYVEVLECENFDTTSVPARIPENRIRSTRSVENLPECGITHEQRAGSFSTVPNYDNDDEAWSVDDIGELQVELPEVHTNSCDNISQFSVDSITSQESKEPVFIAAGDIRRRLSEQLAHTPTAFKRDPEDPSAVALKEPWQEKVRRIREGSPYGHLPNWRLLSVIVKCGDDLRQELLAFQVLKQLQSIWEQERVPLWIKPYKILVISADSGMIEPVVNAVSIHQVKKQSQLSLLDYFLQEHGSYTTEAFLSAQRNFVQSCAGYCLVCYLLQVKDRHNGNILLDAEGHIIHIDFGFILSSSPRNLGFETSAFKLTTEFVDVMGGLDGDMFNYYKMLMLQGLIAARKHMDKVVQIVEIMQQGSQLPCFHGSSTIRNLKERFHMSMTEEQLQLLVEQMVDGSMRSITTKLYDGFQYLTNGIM

CDK6/cyclin D1 = CDK6/cyclin D1 (Homo sapiens, UniProt Q00534); test: biochemical; conditions: read-out: % inhibition mean (Adapta)
LRRK2 FL = LRRK2 FL (Homo sapiens, UniProt Q5S007); test: biochemical; conditions: read-out: % inhibition mean (Adapta)
LRRK2 G2019S = LRRK2 G2019S (Homo sapiens, UniProt Q5S007, G2019S); test: biochemical; conditions: read-out: % inhibition mean (Adapta)
CDK4/cyclin D1 = CDK4/cyclin D1 (Homo sapiens, UniProt P11802); test: biochemical; conditions: read-out: % inhibition mean (Adapta)
PIK3C3 (hVPS34) = PIK3C3 (hVPS34) (Homo sapiens, UniProt Q8NEB9); test: biochemical; conditions: read-out: % inhibition mean (Adapta)
[4] = molecular target: PIK3CA/PIK3R3 (p110 alpha/p55 gamma) (Homo sapiens, UniProt P42336); test: biochemical; conditions: read-out: % inhibition mean (Adapta)
LRRK2 G2019S FL = LRRK2 G2019S FL (Homo sapiens, UniProt Q5S007, G2019S); test: biochemical; conditions: read-out: % inhibition mean (Adapta)
[5] = molecular target: PIK3CB/PIK3R1 (p110 beta/p85 alpha) (Homo sapiens, UniProt P42338); test: biochemical; conditions: read-out: % inhibition mean (Adapta)
LRRK2 R1441C = LRRK2 R1441C (Homo sapiens, UniProt Q5S007, R1441C); test: biochemical; conditions: read-out: % inhibition mean (Adapta)
PI4K2B (PI4K2 beta) = PI4K2B (PI4K2 beta) (Homo sapiens, UniProt Q8TCG2); test: biochemical; conditions: read-out: % inhibition mean (Adapta)
PIK3C2G (PI3K-C2 gamma) = PIK3C2G (PI3K-C2 gamma) (Homo sapiens, UniProt O75747); test: biochemical; conditions: read-out: % inhibition mean (Adapta)
PIK3C2A (PI3K-C2 alpha) = PIK3C2A (PI3K-C2 alpha) (Homo sapiens, UniProt O00443); test: biochemical; conditions: read-out: % inhibition mean (Adapta)
[6] = molecular target: PIK3CD/PIK3R1 (p110 delta/p85 alpha) (Homo sapiens, UniProt O00329); test: biochemical; conditions: read-out: % inhibition mean (Adapta)
PIK3CD/PIK3R1 (p110 delta/p85 alpha), sequence (O00329 whole entry): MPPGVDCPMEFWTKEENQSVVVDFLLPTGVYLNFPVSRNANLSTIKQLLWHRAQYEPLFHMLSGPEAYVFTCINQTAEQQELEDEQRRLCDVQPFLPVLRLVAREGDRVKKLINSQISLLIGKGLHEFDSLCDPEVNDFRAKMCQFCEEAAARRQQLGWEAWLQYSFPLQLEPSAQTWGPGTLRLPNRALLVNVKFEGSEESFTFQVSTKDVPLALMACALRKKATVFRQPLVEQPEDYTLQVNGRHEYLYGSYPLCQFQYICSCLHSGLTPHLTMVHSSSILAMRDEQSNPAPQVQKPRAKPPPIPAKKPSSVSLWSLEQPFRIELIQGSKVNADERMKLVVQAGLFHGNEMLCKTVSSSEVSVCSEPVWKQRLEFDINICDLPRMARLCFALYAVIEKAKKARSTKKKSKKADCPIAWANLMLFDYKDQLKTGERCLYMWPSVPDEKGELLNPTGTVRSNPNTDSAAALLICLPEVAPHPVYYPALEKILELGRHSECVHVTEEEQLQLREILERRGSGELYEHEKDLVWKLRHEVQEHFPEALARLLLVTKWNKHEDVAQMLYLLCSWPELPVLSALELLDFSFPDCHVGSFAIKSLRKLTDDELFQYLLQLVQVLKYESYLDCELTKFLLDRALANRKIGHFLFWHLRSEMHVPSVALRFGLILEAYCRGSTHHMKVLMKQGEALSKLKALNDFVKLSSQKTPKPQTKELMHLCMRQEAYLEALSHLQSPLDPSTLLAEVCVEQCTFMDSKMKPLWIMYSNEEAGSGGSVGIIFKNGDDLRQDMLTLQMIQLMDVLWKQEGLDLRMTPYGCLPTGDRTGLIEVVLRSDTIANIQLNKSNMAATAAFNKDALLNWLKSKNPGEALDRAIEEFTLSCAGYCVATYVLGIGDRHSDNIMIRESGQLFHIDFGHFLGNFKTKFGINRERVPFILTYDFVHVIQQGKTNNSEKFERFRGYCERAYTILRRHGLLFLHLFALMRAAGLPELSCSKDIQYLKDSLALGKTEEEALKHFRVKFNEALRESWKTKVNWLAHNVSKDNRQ
PIK3CD/PIK3R1 (p110 delta/p85 alpha), sequence (P27986 whole entry partner): as the sequence (P27986 whole entry partner) above

CAMK1 (CaMK1) [7] = molecular target: T1, CAMK1 (CaMK1); test: Adapta universal kinase assay; format: biochemical
CDK1/cyclin B = CDK1/cyclin B (Homo sapiens, UniProt P06493); test: biochemical; conditions: read-out: % inhibition mean (Z'Lyte)

T1 sequence (Q14012 whole entry): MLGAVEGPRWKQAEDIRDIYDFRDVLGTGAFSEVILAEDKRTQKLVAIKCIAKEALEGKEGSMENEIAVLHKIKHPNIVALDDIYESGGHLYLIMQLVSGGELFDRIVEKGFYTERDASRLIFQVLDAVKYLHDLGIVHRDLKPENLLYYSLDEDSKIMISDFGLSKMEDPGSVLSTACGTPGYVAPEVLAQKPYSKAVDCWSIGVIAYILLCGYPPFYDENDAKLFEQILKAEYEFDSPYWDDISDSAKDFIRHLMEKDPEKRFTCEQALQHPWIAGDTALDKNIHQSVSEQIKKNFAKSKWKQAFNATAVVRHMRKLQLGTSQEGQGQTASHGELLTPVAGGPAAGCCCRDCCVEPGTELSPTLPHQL

COc1ccc2nc3cc(Cl)ccc3c(Nc3cc(CN4CCCC4)c(O)c(CN4CCCC4)c3)c2n1 [Pyronaridine, 4-[(7-Chloro-2-methoxybenzo[b][1,5]naphthyridin-10-yl)amino]-2,6-bis(1-pyrrolidinylmethyl)phenol phosphate (1:4)]
IC50 (PL^pro): 1860 ± 580 nM
inhibition at 1 µM (CAMK1 (CaMK1) [1]): 35%
inhibition at 1 µM (NUAK1 (ARK5)): 11%
inhibition at 1 µM (PIP5K1B): -11%
inhibition at 1 µM (LRRK2 I2020T): -15%
inhibition at 1 µM (PIP5K1C): -3%
inhibition at 1 µM [2]: -2%
inhibition at 1 µM [3]: 7%
inhibition at 1 µM (CDK9/cyclin T1): 5%
inhibition at 1 µM (PIK3CG (p110 gamma)): 2%
inhibition at 1 µM (SPHK2): -5%
inhibition at 1 µM (PI4KB (PI4K beta)): 5%
inhibition at 1 µM (CDK6/cyclin D1): 1%
inhibition at 1 µM (LRRK2 FL): -4%
inhibition at 1 µM (LRRK2 G2019S): 4%
inhibition at 1 µM (CDK4/cyclin D1): 1%
inhibition at 1 µM (PIK3C3 (hVPS34)): -4%
inhibition at 1 µM [4]: 1%
inhibition at 1 µM (LRRK2 G2019S FL): -10%
inhibition at 1 µM [5]: -11%
inhibition at 1 µM (LRRK2 R1441C): -7%
inhibition at 1 µM (PI4K2B (PI4K2 beta)): 2%
inhibition at 1 µM (PIK3C2G (PI3K-C2 gamma)): 3%
inhibition at 1 µM (PIK3C2A (PI3K-C2 alpha)): -1%
inhibition at 1 µM [6]: 9%
IC50 (CAMK1 (CaMK1) [7]): 2400 nM
inhibition at 1 µM (CDK1/cyclin B): 5%
